SMILES strings stand for the structures.

A short description of data set [1]: Fluorescence excitation and emission peaks (Spetramax M5). In kind it is physicochemical. The settings on record: 10 μM in aqueous solution. As for the experimental part:
Fluorescence excitation and emission peaks for Formula I, and benzofuran compounds A and B, (see Table 1) were measured using a Spetramax M5 (Molecular Devices). For Formula I, the excitation max was 380 nm, and the emission max was 470 nm. For compound A, the excitation max was 435 nm and the emission max was 550 nm. For compound B, the excitation max was 435 nm and the emission max was 535 nm. The final concentration of each analog in an aqueous solution was 10 μM. Log P, which is the logarithm of octanol-water partition coefficient, was determined for each analog using commercially available software (Table 1).

The test system of data set [2] is myelin. Briefly: Staining of cryostatic sections of nervous tissue. In kind it is binding, rat. Particulars: for labeling of brain or nerve tissue versus background autofluorescence: brain and nerve sections. On the procedure: 10 μm-thick sections (fresh frozen or formalin-fixed) of rat brain and cross-sections of sciatic, optic, and penile nerves were mounted on microscope slides, washed 3×5 min in phosphate buffered saline (PBS), then drained for 2 min. 1 mM stock solution of Formula I was prepared in 50% ethanol and 50% deionized water. The solution was vortexed and centrifuged at 10,000×g, and the supernatant, containing fully dissolved Formula I was transferred into a fresh tube. The solution was diluted to 25 uM in 50% ethanol. 200 uL of the 25 uM Formula I was pipetted onto the microscope slides. Control sections were treated with 50% ethanol. Parafilm was placed over sections during 10 min incubation at room temperature. Unbound compound was rinsed by serial immersion in 3×1 min washes in 50% ethanol, followed by a 1 min wash in de-ionized, distilled water. For cell body counterstaining, sections were immersed in 100 uL of 500 nM propidium iodide (PI) in PBS and carefully covered with parafilm. The sections were incubated for 5 min at room temperature. The samples were repeatedly rinsed and washed with PBS (3×10 min), followed by de-ionized, distilled water. The sections were covered with 20 uL of AntiFade Gold (Molecular Probes Inc, Carlsbad Calif.) and examined microscopically. Images were collected on a Leica DMRA2 fluorescent microscope equipped with filter cubes for near ultraviolet and visible fluorophores. Fluorescence was visualized using a Leica “A” filter cube while PI was imaged with a Leica “TX2” cube.
Staining of sciatic nerve sections by Formula I was also compared to a commercially available myelin stain (FluoroMyelin, Invitrogen). The tissue sections were […] by incubating in PBS for 5 minutes, followed by permeabilized with PBS containing 0.2% Triton X-100 for 20 minutes. The staining solution was prepared by 300-fold dilution of a stock solution of DAPI and a stock solution of Fluoromyelin green fluorescent myelin. Each section was flooded with 100 uL of the staining solution, covered with a small piece of parafilm and allowed to incubate for 20 min. The parafilm was removed and all sections were washed 3×5 min in PBS and rinsed with de-ionized, distilled water. After drying, the tissue sections were covered with 20 uL of AntiFade Gold (Molecular Probes Inc) and examined microscopically.

The test system of data set [3] is myelin of freshly explanted sciatic nerve. The data set can be described thus: Staining of explanted nerves. In kind it is binding, rat. Particulars: 20 min incubation, trans-illuminator ≧350 nm. As for the experimental part: Freshly explanted sciatic nerve was incubated in Formula I then imaged under an ultraviolet transilluminator to visualize myelin. Rats were euthanized and within 30 min, 2 cm-long segments of their sciatic nerve tissue were collected, rinsed with PBS, then washed 3×5 min in 50% ethanol. The nerves were incubated at RT in the dark for 20 min in a solution of Formula I as prepared in Example 1. Control nerves were incubated in 50% ethanol. Nerves were rinsed 3×3 min in 50% ethanol, followed by de-ionized distilled water, and mounted on glass slides. Samples were placed on a trans-illuminator (long wavelength, ≧350 nm) and photographed.

Data set [4] in a line: Kinetics and biodistribution of [3H] labeled Formula I (standard uptake values). The data set is classed as in vivo. The settings on record: mice. On the procedure:
100 μl of [^3H] labeled Formula I, diluted in saline to 740 kBq/ml, was injected into the tail vein of female mice weighing […]. Mice were killed by CO2 at 2, 5, 15, 30, or 60 min post-injection and organs immediately dissected out. Organs were weighed, transferred to scintillation tubes containing 2 ml Biolute-S (Zinsser Analytic GmbH, Germany), and tubes were shaken overnight at room temperature. Subsequently, 200 μL of glacial acetic acid was added and after 1 h, 10 mL of scintillation fluid was added (Ready Organics, Beckman Coulter). The tubes were shaken vigorously, allowed to rest for 1 h, and radioactivity was measured in scintillation counter (LS 6000LL, Beckman Instruments). Blood, also sampled at each time point, was collected in heparinized tubes. 10 μL of each sample was added to 2 ml Biolute-S. A similar procedure was used for the other organs studied.
Biodistribution of Formula I at different time points following administration was expressed as standard uptake values (SUVs), according to the following formula wherein RA is a measure of radioactivity: […]

In data set [1], `O=Cc1ccc(-c2oc3ccccc3c2CO)o1` [Formula I, 2-(2-furanyl-5-formyl)-3-hydroxymethyl benzofuran] gave an Emission max of 470 nm and an Excitation max of 380 nm. For the same compound, the “labeling of rat brain tissue section” value in data set [2] (25 uM in 50% ethanol, 10 min, cerebellum, PI counterstain, FIG. 1) is “specific labeling of myelin”. Moreover, the “labeling of sectioned peripheral nerves” value in data set [2] (cross-sections of peripheral nerves) is on record as “distinctive rings of labeling indicative of cross sections of myelin ensheathing unlabeled axon shafts”. Further, in data set [3], the “fluorescence of explanted sciatic nerve” value is reported as “distinctive fluorescence over background”. Moreover, the blood-brain barrier penetration entry in data set [4] (peripheral administration, uptake in cortex and cerebellum) is “does not readily penetrate the blood-brain barrier”. For the same compound, the “SUV / radioactive signal of sciatic nerve over time” value in data set [4] (tail vein injection, 2-60 min) is “remained elevated throughout the sampling period”. The “SUV of cortex and cerebellum” value in data set [4] (tail vein injection, 2 min post-injection) is less than 0.2. Also, the “time for SUV of multiple tissues to decline to baseline levels” value in data set [4] (tail vein injection, tissues such as blood and muscle) was not above 60 min.

With `N#CC(C#N)=Cc1ccc(-c2oc3ccccc3c2CO)o1` [compound A], in data set [1], the Emission max came to 550 nm and the Excitation max was 435 nm. In data set [2], the “labeling of brain or nerve tissue versus background autofluorescence” value was “did not label brain or nerve tissue above background autofluorescence”.

In data set [1], `CC(=O)OCc1c(-c2ccc(C=C(C#N)C#N)o2)oc2ccccc12` [compound B, 2-(2-diaminooxyethenyl-5-furanyl)-3-ethylacetyl benzofuran] came in with an Emission max of 535 nm and an Excitation max of 435 nm. Further, in data set [2], the “labeling of brain or nerve tissue versus background autofluorescence” value was “did not label brain or nerve tissue above background autofluorescence”.
